Laboratory results as given in US20230080054A1 (ILDONG PHARMACEUTICAL CO., LTD., priority 2021, published 2023).

Experiments:
[1] = target: T1, human ANO6 (Homo sapiens, UniProt Q4KMQ2); experiment: YFP quenching assay (ANO6 ion channel activity); assay type: cell-based; conditions: 10 μM ionomycin; for inhibition at 1 µM: test compound 1 μM, read-out: Inhibition Level 1 μM; for inhibition at 30 µM: test compound 30 μM, read-out: Inhibition Level 30 μM
T1 construct: expressed in transfected cells
T1 sequence (Q4KMQ2 1-931 isoform Q4KMQ2-2): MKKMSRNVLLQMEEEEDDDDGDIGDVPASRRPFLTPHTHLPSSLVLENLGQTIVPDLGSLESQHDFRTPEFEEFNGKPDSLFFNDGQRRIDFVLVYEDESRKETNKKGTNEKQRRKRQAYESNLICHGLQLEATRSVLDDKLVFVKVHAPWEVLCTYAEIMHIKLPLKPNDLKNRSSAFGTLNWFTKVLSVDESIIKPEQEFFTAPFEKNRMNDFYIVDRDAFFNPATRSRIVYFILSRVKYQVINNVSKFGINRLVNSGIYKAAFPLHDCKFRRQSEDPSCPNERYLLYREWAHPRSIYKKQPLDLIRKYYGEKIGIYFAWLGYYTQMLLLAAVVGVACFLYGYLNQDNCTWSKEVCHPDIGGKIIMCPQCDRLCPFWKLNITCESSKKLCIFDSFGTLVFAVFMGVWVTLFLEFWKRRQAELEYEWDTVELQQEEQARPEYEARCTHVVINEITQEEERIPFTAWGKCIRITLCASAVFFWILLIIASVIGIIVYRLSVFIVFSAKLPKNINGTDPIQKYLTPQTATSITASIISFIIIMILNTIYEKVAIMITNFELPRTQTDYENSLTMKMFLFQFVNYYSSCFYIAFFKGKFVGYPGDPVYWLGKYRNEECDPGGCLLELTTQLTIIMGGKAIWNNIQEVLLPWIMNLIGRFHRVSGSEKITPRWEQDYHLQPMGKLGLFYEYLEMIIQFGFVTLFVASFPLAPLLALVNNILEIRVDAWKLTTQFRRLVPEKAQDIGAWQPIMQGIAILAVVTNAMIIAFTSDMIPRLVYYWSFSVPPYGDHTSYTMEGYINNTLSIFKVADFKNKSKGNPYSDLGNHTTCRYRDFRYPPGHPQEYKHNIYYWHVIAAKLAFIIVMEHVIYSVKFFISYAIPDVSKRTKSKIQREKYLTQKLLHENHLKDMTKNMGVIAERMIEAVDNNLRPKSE
Procedure, shortened: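 FRT cells stably expressing human ANO6 and YFP-H148Q/I152L/F46L, preincubated 10 min at 40° C with compounds (1% DMSO) in PBS. Quench read every 0.4 s after injecting 140 mM SCN- with 10 μM ionomycin; % inhibition from the 3.6–7.6 s fluorescence difference, normalised to no-ionomycin (100%) and ionomycin-only (0%) wells, duplicate or triplicate.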

[2] = target: T1, human ANO6; experiment: LACT C2 assay (phosphatidylserine scramblase function assay); assay type: cell-based; conditions: FRT cells expressing human ANO6, 10 μM ionomycin; for inhibition at 0.1 µM: test compound 100 nM, read-out: Inhibition Level 100 nM; for inhibition at 1 µM: test compound 1 μM, read-out: Inhibition Level 1 μM
Procedure, shortened: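 FRT cells stably expressing human ANO6 were pretreated with compound (1% DMSO) for 10 min, then stimulated with 10 μM ionomycin for 10 min. Surface phosphatidylserine was stained with 500 nM Lact-C2-GFP and quantified by imaging. Inhibition was scaled between unstimulated (100%) and ionomycin-only (0%) controls, averaged over triplicates.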

inhibition at 1 µM [1] | inhibition at 30 µM [1] | inhibition at 0.1 µM [2] | inhibition at 1 µM [2] | Structure (SMILES)
≥ 60% | – | – | 30 to 60% | Cc1ccc(CNC(=O)c2cccc(Nc3ccc(-c4cccc(F)c4)nn3)c2)o1 [Compound A87]
30 to 60% | ≥ 60% | < 30% | < 30% | CSc1ccc(CNC(=O)c2cccc(Nc3ccc(-c4ccc(F)cc4)nn3)c2)cc1 [Compound A27]
≥ 60% | – | 30 to 60% | ≥ 60% | O=C(NCCCc1ccccc1)c1cccc(Nc2ncc(-c3cccc(F)c3)cn2)c1 [Compound 60, 3-{[5-(3-fluorophenyl)pyrimidin-2-yl]amino}-N-(3-phenylpropyl)benzamide]
≥ 60% | – | – | 30 to 60% | O=C(NCCc1cccc(F)c1)c1cccc(Nc2ncc(-c3ccccc3)cn2)c1 [Compound 90, N-[2-(3-fluorophenyl)ethyl]-3-[(5-phenylpyrimidin-2-yl)amino]benzamide]
≥ 60% | ≥ 60% | ≥ 60% | ≥ 60% | CCCCCCCNC(=O)c1cccc(Nc2ccc(-c3ccccc3)nn2)c1 [Compound A38]
≥ 60% | ≥ 60% | – | 30 to 60% | O=C(NCc1ccc(F)cc1)c1cccc(Nc2ccc(-c3ccccc3)nn2)c1 [Compound A24]
≥ 60% | ≥ 60% | < 30% | < 30% | CCOCCCNC(=O)c1cccc(Nc2ccc(-c3ccccc3)nn2)c1 [Compound A67]
≥ 60% | ≥ 60% | < 30% | 30 to 60% | O=C(Nc1cccc(F)c1)c1cccc(Nc2ccc(-c3ccc(F)cc3)nn2)c1 [Compound A15]
≥ 60% | – | – | 30 to 60% | O=C(NCCc1ccccc1)c1cccc(Nc2ccc(-c3cccc(F)c3)cn2)c1 [Compound 121, 3-{[5-(3-fluorophenyl)pyridin-2-yl]amino}-N-(2-phenylethyl)benzamide]
30 to 60% | ≥ 60% | < 30% | 30 to 60% | CCN(CCNC(=O)c1cccc(Nc2ccc(-c3ccccc3)nn2)c1)Cc1ccccc1 [Compound A41]
≥ 60% | – | < 30% | ≥ 60% | O=C(Nc1cccc(F)c1)c1cccc(Nc2ncc(-c3ccccc3)cn2)c1 [Compound 116, N-(3-fluorophenyl)-3-[(5-phenylpyrimidin-2-yl)amino]benzamide]
30 to 60% | – | – | < 30% | CCC(CC)NC(=O)c1cccc(Nc2ccc(-c3ccccc3)nn2)c1 [Compound 66, N-(pentan-3-yl)-3-[(6-phenylpyridazin-3-yl)amino]benzamide]
< 30% | – | < 30% | < 30% | O=C(NC1CCN(Cc2ccccc2)CC1)c1cccc(Nc2ncc(-c3ccccc3)cn2)c1 [Compound 120, N-(1-benzylpiperidin-4-yl)-3-[(5-phenylpyrimidin-2-yl)amino]benzamide]
≥ 60% | ≥ 60% | 30 to 60% | ≥ 60% | O=C(Nc1cccc(F)c1)c1cccc(Nc2ccc(-c3ccccc3)nn2)c1 [Compound 29, N-(3-fluorophenyl)-3-[(6-phenylpyridazin-3-yl)amino]benzamide]
≥ 60% | – | 30 to 60% | ≥ 60% | Cc1ccc(CNC(=O)c2cccc(Nc3ccc(-c4cscc4C)nn3)c2)o1 [Compound 74, N-[(5-methylfuran-2-yl)methyl]-3-{[6-(4-methylthiophen-3-yl)pyridazin-3-yl]amino}benzamide]

Further lines, the molecule ahead of its results:

Structure (SMILES) | inhibition at 1 µM [1] | inhibition at 30 µM [1] | inhibition at 0.1 µM [2] | inhibition at 1 µM [2]
Cc1cccc(CNC(=O)c2cccc(Nc3ccc(-c4ccc(F)cc4)nn3)c2)c1 [Compound A5] | ≥ 60% | ≥ 60% | < 30% | < 30%
CC(C)CCNC(=O)c1cccc(Nc2ccc(-c3ccccc3)nn2)c1 [Compound A70] | ≥ 60% | ≥ 60% | 30 to 60% | ≥ 60%
Cc1cccc(CNC(=O)c2cccc(Nc3ccc(-c4ccccc4)nn3)c2)c1 [Compound A50] | ≥ 60% | ≥ 60% | < 30% | 30 to 60%
O=C(NC1CCCCCC1)c1cccc(Nc2ccc(-c3ccc(F)cc3)nn2)c1 [Compound A3] | ≥ 60% | ≥ 60% | < 30% | ≥ 60%
O=C(NC1CCN(Cc2ccccc2)CC1)c1cccc(Nc2ccc(-c3ccccc3)nn2)c1 [Compound A73] | ≥ 60% | ≥ 60% | < 30% | 30 to 60%
Cc1ccccc1CNC(=O)c1cccc(Nc2ccc(-c3ccc(F)cc3)nn2)c1 [Compound A35] | ≥ 60% | ≥ 60% | < 30% | < 30%
O=C(NCCC1CCCCC1)c1cccc(Nc2ncc(-c3ccccc3)cn2)c1 [Compound 81, N-(2-cyclohexylethyl)-3-[(5-phenylpyrimidin-2-yl)amino]benzamide] | ≥ 60% | – | 30 to 60% | ≥ 60%
O=C(NC1CCCC1)c1cccc(Nc2ccc(-c3ccccc3)nn2)c1 [Compound A63] | ≥ 60% | ≥ 60% | < 30% | < 30%
Cc1ccc(CNC(=O)c2cccc(Nc3ncc(-c4ccoc4C)cn3)c2)o1 [Compound 112, N-[(5-methylfuran-2-yl)methyl]-3-{[5-(2-methylfuran-3-yl)pyrimidin-2-yl]amino}benzamide] | ≥ 60% | – | – | 30 to 60%
Cc1ccc(CNC(=O)c2cccc(Nc3ccc(-c4cccnc4)nn3)c2)o1 [Compound 10, N-[(5-methylfuran-2-yl)methyl]-3-{[6-(pyridin-3-yl)pyridazin-3-yl]amino}benzamide] | ≥ 60% | ≥ 60% | – | < 30%
O=C(NCCc1ccccc1)c1cccc(Nc2ccc(-c3ccccc3)cc2)c1 [Compound 50, 3-({[1,1′-biphenyl]-4-yl}amino)-N-(2-phenylethyl)benzamide] | ≥ 60% | – | – | 30 to 60%
O=C(NC1CCCC1)c1cccc(Nc2ccc(-c3ccc(F)cc3)nn2)c1 [Compound A14] | ≥ 60% | ≥ 60% | < 30% | < 30%
O=C(NCc1ccc(Cl)c(Cl)c1)c1cccc(Nc2ccc(-c3ccccc3)nn2)c1 [Compound 36, N-(3,4-dichlorobenzyl)-3-((6-phenylpyridazin-3-yl)amino)benzamide] | ≥ 60% | ≥ 60% | 30 to 60% | ≥ 60%
O=C(NCc1ccsc1)c1cccc(Nc2ccc(-c3ccccc3)nn2)c1 [Compound 44, 3-[(6-phenylpyridazin-3-yl)amino]-N-[(thiophen-3-yl)methyl]benzamide] | ≥ 60% | – | – | < 30%
O=C(NCCc1ccccc1)c1cccc(Nc2ccc(-c3ccccc3)cn2)c1 [Compound 114, N-(2-phenylethyl)-3-[(5-phenylpyridin-2-yl)amino]benzamide] | ≥ 60% | – | < 30% | ≥ 60%
O=C(Nc1ccccc1)c1cccc(Nc2ccc(-c3ccccc3)nn2)c1 [Compound A89] | ≥ 60% | – | 30 to 60% | ≥ 60%
CCOc1ccc(NC(=O)c2cccc(Nc3ccc(-c4ccccc4)nn3)c2)cc1 [Compound A80] | ≥ 60% | – | < 30% | ≥ 60%
